Here are results for 69 compounds from patent US11873291B2, “Quinoline cGAS antagonist compounds” (ImmuneSensor Therapeutics, Inc., priority 2020, dated 2024).

Structures are written as SMILES. pIC50: −log10 of the molar value.

In the first experiment the target is T1, recombinant human cGAS (aa147-522) (Homo sapiens, UniProt Q8N884).
T1 construct: recombinant human cGAS (aa147-522); His6-SUMO (cleaved yes); made in house; host or cells: E. coli BL21/pLys
T1 sequence (Q8N884 147-522): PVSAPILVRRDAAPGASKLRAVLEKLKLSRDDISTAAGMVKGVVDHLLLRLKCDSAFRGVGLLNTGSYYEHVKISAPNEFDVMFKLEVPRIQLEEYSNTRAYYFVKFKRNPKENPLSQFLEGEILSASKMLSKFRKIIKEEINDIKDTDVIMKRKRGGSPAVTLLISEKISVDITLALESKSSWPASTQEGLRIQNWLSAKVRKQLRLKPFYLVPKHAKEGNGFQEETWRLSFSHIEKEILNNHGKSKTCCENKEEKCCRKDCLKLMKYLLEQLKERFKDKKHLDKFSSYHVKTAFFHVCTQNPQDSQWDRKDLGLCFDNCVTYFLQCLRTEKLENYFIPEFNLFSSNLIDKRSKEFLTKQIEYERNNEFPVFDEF
Description: In vitro inhibition assay of cGAS activity (ATP consumption, KinaseGlo Max). Particulars: Table 2, read-out: cGAS Inhibition Results IC50. The experiment is classed as biochemical. A digest of the protocol:
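IC50 came from plotting % ATP consumption against log compound concentration, with leftover ATP detected by KinaseGlo Max chemiluminescence. Reactions ran 20 min at 37 °C with 1.5 μg/mL human cGAS (aa147-522), 6.6 μM ATP, 0.1 mM GTP and 0.01 mg/mL DNA at pH 7.5.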
A word on the pIC50: it is the negative decadic logarithm of the IC50, by convention in mol/L. For the compound `O=C(O)[C@@H]1CN(c2cc(-n3ccnc3)c3ccc(Cl)cc3n2)CC[C@@H]1O` [I-136], the pIC50 is 4.52 to 5.70.

Take `O=C1NC(=O)C(CCCc2cc(-c3cn[nH]c3)c3ccc(Cl)c(Cl)c3n2)S1` (stereo not drawn) [I-272, 5-(3-(7,8-dichloro-4-(1H-pyrazol-4-yl)quinolin-2-yl)propyl)thiazolidine-2,4-dione]: the pIC50 is 4.52 to 5.70.

With `OC[C@@H]1C[C@@H](O)CN1c1cc(-n2ccnc2)c2ccc(Cl)c(Cl)c2n1` [I-142], the pIC50 is over 5.70.

Regarding `OCCC1CCCN(c2cc(-c3cn[nH]c3)c3ccc(Cl)c(Cl)c3n2)C1` (stereo not drawn) [I-375], the pIC50 is 4.52 to 5.70.

In the case of `Clc1ccc2c(-c3cccnc3)cc(-c3ccccc3)nc2c1` [I-69], the pIC50 is under 4.52.

With `Clc1ccc2c(-c3ccn[nH]3)cc(-c3ccccc3)nc2c1` [I-68], the negative-log IC50 (pIC50) is under 4.52.

In the case of `Brc1ccc2c(-n3ccnn3)ccnc2c1` [I-420], the pIC50 is under 4.52.

Consider `O=[PH](O)OCC1CCCN(c2cc(-c3cn[nH]c3)c3ccc(Cl)c(Cl)c3n2)C1` (stereo not drawn) [I-329], for which the pIC50 is over 5.70.

Regarding `Cc1ccc2c(-c3cn[nH]c3)cc(NCCS(N)(=O)=O)nc2c1` [I-266], the pIC50 was under 4.52.

As for `CN(CCNC(=O)c1ccccc1)c1cc(-n2ccnc2)c2ccc(Cl)cc2n1` [I-237], the pIC50 was 4.52 to 5.70.

Turning to `O=C1CC[C@@H](CO)N1c1cc(-n2ccnc2)c2ccc(Cl)c(Cl)c2n1` [I-376], the pIC50 was under 4.52.

Turning to `CN(CCC(=O)O)C(=O)C[C@@H]1CCCN1c1cc(-n2ccnc2)c2ccc(Cl)c(Cl)c2n1` [I-340], the pIC50 was over 5.70.

Take `O=P(O)(O)OC1CCCN(c2cc(-n3ccnc3)c3ccc(Cl)c(Cl)c3n2)C1` (stereo not drawn) [I-112, 1-(7,8-dichloro-4-(1H-imidazol-1-yl)quinolin-2-yl)piperidin-3-yl dihydrogen phosphate]: the pIC50 is over 5.70.

For the compound `O=C(O)c1cccc(Oc2cc(-n3ccnc3)c3ccc(Cl)cc3n2)c1` [I-282], the pIC50 was 4.52 to 5.70.

On to `O=C(O)C1CCCC(Nc2cc(-n3ccnc3)c3ccc(Cl)cc3n2)C1` (stereo not drawn) [I-366], for which the pIC50 was 4.52 to 5.70.

Regarding `O=[PH](O)OCC1CCCN(c2cc(-n3ccnc3)c3ccc(Cl)c(Cl)c3n2)C1` (stereo not drawn) [I-110], the pIC50 is over 5.70.

Consider `Cn1cnc(S(=O)(=O)NC2CCCN(c3cc(-n4ccnc4)c4ccc(Cl)cc4n3)C2)c1` (stereo not drawn) [I-103], for which the pIC50 was 4.52 to 5.70.

For the compound `Oc1cc(OC(F)(F)F)cc(-c2cc(-n3ccnc3)c3ccc(Cl)c(Cl)c3n2)c1` [I-44], the pIC50 was under 4.52.

Take `COCCN(C)c1cc(-n2ccnc2)c2ccc(Cl)c(Cl)c2n1` [I-244]: the pIC50 is over 5.70.

Regarding `CC(=O)N[C@@H]1C[C@@H](C(=O)O)N(c2cc(-n3ccnc3)c3ccc(Cl)c(Cl)c3n2)C1` [I-347], the pIC50 was over 5.70.

Take `NS(=O)(=O)CCNc1cc(-c2cn[nH]c2)c2c(Cl)c(Cl)ccc2n1` [I-261]: the pIC50 was under 4.52.

As for `Brc1ccc2c(-n3cccn3)ccnc2c1` [I-414], the pIC50 was under 4.52.

As to `CS(=O)(=O)N[C@@H]1C[C@@H](C(=O)O)N(c2cc(-n3ccnc3)c3ccc(Cl)c(Cl)c3n2)C1` [I-351], the pIC50 is over 5.70.

In the case of `O=C(O)[C@@H]1C[C@H](O)CN1c1cc(-c2cn[nH]c2)c2ccc(Cl)c(Cl)c2n1` [I-431], the pIC50 was over 5.70.

Turning to `CN(CCN(C)S(N)(=O)=O)c1cc(-n2ccnc2)c2ccc(Cl)c(Cl)c2n1` [I-224], the pIC50 was over 5.70.

As for `Clc1ccc2c(-n3ccnc3)cc(N3CCC(c4nn[nH]n4)C3)nc2c1` (stereo not drawn) [I-155], the pIC50 was 4.52 to 5.70.

As for `Brc1ccc2c(-n3ccnc3)cc(-c3ccccc3)nc2c1` [I-424, 7-bromo-4-(1H-imidazol-1-yl)-2-phenylquinoline], the pIC50 was 4.52 to 5.70.

For `O=S(=O)(O)CNc1cc(-n2ccnc2)c2ccc(Cl)c(Cl)c2n1` [I-157], the pIC50 was 4.52 to 5.70.

Take `Cc1cc(N2CCNC(=O)CC2)c2ccc(Cl)c(Cl)c2n1` [I-310]: the pIC50 is under 4.52.

In the case of `NS(=O)(=O)CCNc1cc(-c2cn[nH]c2)c2ccc(Cl)c(Cl)c2n1` [I-203], the pIC50 was over 5.70.

As to `Clc1ccc2c(-n3ccnc3)cc(N3CCOCC3)nc2c1Cl` [I-95], the pIC50 is 4.52 to 5.70.

As to `CN(CCS(N)(=O)=O)c1ccc2ccc(Cl)c(Cl)c2n1` [I-161], the pIC50 was under 4.52.

Consider `O=C(O)CNc1cc(-c2cn[nH]c2)c2ccc(Cl)c(Cl)c2n1` [I-177, (7,8-dichloro-4-(1H-pyrazol-4-yl)quinolin-2-yl)glycine], for which the pIC50 is 4.52 to 5.70.

As for `O=C(O)[C@H](CO)Nc1cc(-n2ccnc2)c2ccc(Cl)c(Cl)c2n1` [I-168, (7,8-Dichloro-4-(1H-imidazol-1-yl)quinolin-2-yl)serine], the pIC50 is over 5.70.

For `C[C@H](CC(=O)O)Nc1cc(-n2ccnc2)c2ccc(Cl)c(Cl)c2n1` [I-185], the pIC50 was 4.52 to 5.70.

Consider `COc1ccccc1-c1cc(-n2ccnc2)c2ccc(Br)cc2n1` [I-381], for which the pIC50 was under 4.52.

Regarding `NS(=O)(=O)CCNc1cc(-c2cn[nH]c2)c2c(Cl)cc(Cl)cc2n1` [I-263], the pIC50 was under 4.52.

On to `CN(CCNS(=O)(=O)c1ncc[nH]1)c1cc(-n2ccnc2)c2ccc(Cl)cc2n1` [I-230], for which the pIC50 was 4.52 to 5.70.

In the case of `Cc1cn(-c2cc(-c3ccccc3)nc3cc(Cl)ccc23)cn1` [I-60], the pIC50 was under 4.52.

Take `O=C(CO)NC1CCCN(c2cc(-n3ccnc3)c3ccc(Cl)cc3n2)C1` (stereo not drawn) [I-106, N-(1-(7-chloro-4-(1H-imidazol-1-yl)quinolin-2-yl)piperidin-3-yl)-2-hydroxyacetamide]: the pIC50 was 4.52 to 5.70.

In the case of `Clc1cccc2c(-n3ccnc3)ccnc12` [I-408, 8-chloro-4-(1H-imidazol-1-yl)quinoline], the pIC50 is under 4.52.

Take `O=S(=O)(O)CCCNc1cc(-n2ccnc2)c2ccc(Cl)c(Cl)c2n1` [I-160]: the pIC50 was over 5.70.

`CC(C)N(CCS(=O)(=O)O)c1cc(-n2ccnc2)c2ccc(Cl)c(Cl)c2n1` [I-165]: the pIC50 was over 5.70.

For the compound `O[C@@H]1CCCN(c2cc(-n3ccnc3)c3ccc(Cl)c(Cl)c3n2)C1` [I-134], the pIC50 was 4.52 to 5.70.

On to `O=c1[nH]c2cc(-c3cc(-n4ccnc4)c4ccc(Cl)cc4n3)ccc2o1` [I-36], for which the pIC50 was under 4.52.

As to `Clc1cc(N2CCNCC2)c2ccc(Cl)c(Cl)c2n1` [I-312], the pIC50 was under 4.52.

Consider `O=C(O)[C@@H]1C[C@H](Oc2ccccc2)CN1c1cc(-c2cn[nH]c2)c2ccc(Cl)c(Cl)c2n1` [I-360], for which the pIC50 is over 5.70.

`CN(CCNS(=O)(=O)c1ccccc1)c1cc(-n2ccnc2)c2ccc(Cl)cc2n1` [I-227]: the negative-log IC50 (pIC50) is under 4.52.

In the case of `C[C@@H](CS(N)(=O)=O)Nc1cc(-n2ccnc2)c2ccc(Cl)c(Cl)c2n1` [I-206], the pIC50 is 4.52 to 5.70.

Regarding `O=C(NO)[C@@H]1CCCN1c1cc(-n2ccnc2)c2ccc(Cl)c(Cl)c2n1` [I-449], the pIC50 was over 5.70.

On to `O=C(O)CN(Cc1ccncc1)c1cc(-n2ccnc2)c2ccc(Cl)c(Cl)c2n1` [I-176], for which the pIC50 was 4.52 to 5.70.

The experiment is the same for the next values; noted with them: Table 3, read-out: cGAS Inhibition Results IC50.
As for `CC(C)[C@H](NC(=O)[C@@H]1CCCN1c1cc(-n2ccnc2)c2ccc(Cl)c(Cl)c2n1)C(=O)O` [I-550], the pIC50 is 4.52 to 5.70.

Consider `CN(CCC(=O)N1CCC(S(N)(=O)=O)C1)c1cc(-n2ccnc2)c2ccc(Cl)c(Cl)c2n1` (stereo not drawn) [I-566], for which the pIC50 was over 5.70.

For `CN(CCS(=O)(=O)NCCC(=O)O)c1cc(-n2ccnc2)c2ccc(Cl)c(Cl)c2n1` [I-630], the pIC50 was over 5.70.

With `CO[C@@H]1CCN(c2cc(-n3ccnc3)c3ccc(Cl)c(Cl)c3n2)[C@@H]1C(=O)O` [I-559], the pIC50 is over 5.70.

With `CCOC(=O)[C@@H]1CC[C@H](C)N1c1cc(-n2ccnc2)c2ccc(Cl)c(Cl)c2n1` [I-460], the pIC50 was 4.52 to 5.70.

For the compound `O=[PH](O)OC[C@@H]1CCCN1c1cc(-n2ccnc2)c2ccc(Cl)c(Cl)c2n1` [I-658, ((5)-1-(7,8-dichloro-4-(1H-imidazol-1-yl)quinolin-2-yl)pyrrolidin-2-yl)methyl hydrogen phosphonate], the pIC50 was over 5.70.

In the case of `CC1(C)C2[C@@H](C(=O)O)N(c3cc(-n4ccnc4)c4ccc(Cl)c(Cl)c4n3)C[C@@H]21` (stereo partly drawn) [I-517], the pIC50 is over 5.70.

In the case of `COC(=O)C1N(c2cc(-n3ccnc3)c3ccc(Cl)c(Cl)c3n2)CCC1(C)C` (stereo not drawn) [I-587], the pIC50 was 4.52 to 5.70.

In the case of `COC(=O)[C@@H]1C[C@H](C(F)(F)F)CN1c1cc(-n2ccnc2)c2ccc(Cl)c(Cl)c2n1` [I-462], the pIC50 was 4.52 to 5.70.

`O=C(O)CCOC[C@@H]1CCCN1c1ccc2ccc(Cl)c(Cl)c2n1` [I-827]: the pIC50 was under 4.52.

On to `O=C(O)c1cccn1-c1cc(-n2ccnc2)c2ccc(Cl)c(Cl)c2n1` [I-506], for which the pIC50 was 4.52 to 5.70.

As for `Nc1ccc(-c2cc(N3CCC[C@H]3COCCC(=O)O)nc3c(Cl)c(Cl)ccc23)cn1` [I-822, (S)-3-((1-(4-(6-aminopyridin-3-yl)-7,8-dichloroquinolin-2-yl)pyrrolidin-2-yl)methoxy)propanoic acid], the pIC50 is under 4.52.

On to `O=C(O)C1CCN(C(=O)C[C@@H]2CCCN2c2cc(-n3ccnc3)c3ccc(Cl)c(Cl)c3n2)CC1` [I-529], for which the pIC50 is over 5.70.

For `C[C@H]1CCN(c2cc(-n3ccnc3)c3ccc(Cl)c(Cl)c3n2)[C@@H]1C(=O)O` [I-482], the pIC50 is over 5.70.

With `CN(CCS(=O)(=O)NCCO)c1cc(-n2ccnc2)c2ccc(Cl)c(Cl)c2n1` [I-624, 2-((7,8-dichloro-4-(1H-imidazol-1-yl)quinolin-2-yl)(methyl)amino)-N-(2-hydroxyethyl)ethane-1-sulfonamide], the pIC50 is over 5.70.

As to `OC[C@@H]1CCN1c1cc(-n2ccnc2)c2ccc(Cl)c(Cl)c2n1` [I-659], the pIC50 is over 5.70.

On to `COC(=O)[C@@H]1C[C@@H](OCCC(=O)O)CN1c1cc(-n2ccnc2)c2ccc(Cl)c(Cl)c2n1` [I-869], for which the pIC50 is 4.52 to 5.70.

For the compound `COC[C@@H]1CC[C@@H](C(=O)O)N1c1cc(-n2ccnc2)c2ccc(Cl)c(Cl)c2n1` [I-463], the pIC50 is 4.52 to 5.70.
